Laboratory results taken from ChEMBL document CHEMBL3779770, “Synthesis, biological evaluation and molecular docking study of some novel indole and pyridine based 1,3,4-oxadiazole derivatives as potential antitubercular agents” (Bioorg Med Chem Lett, 2016).
≈ marks a conversion by molar mass, not a printed value.

Experiments:
[1] = tested on: Mycobacterium tuberculosis; assay: Antitubercular activity against dormant state Mycobacterium tuberculosis H37Ra assessed as viable cells after 12 days by XTT reduction menadione assay; format: functional, organism-based; conditions: 288 h
[2] = Cytotoxicity against human PANC1 cells after 48 hrs by MTT assay; format: cell-based, PANC-1; conditions: for GI50 at 48 h: PANC1 cells; for GI90: panc-1, 48 h
[3] = tested on: Escherichia coli; assay: Antibacterial activity against Escherichia coli NCIM 2688 after 8 hrs; format: functional, organism-based; conditions: NCIM 2688, 8 h
[4] = tested on: Bacillus subtilis; assay: Antibacterial activity against Bacillus subtilis NCIM 2079 after 12 hrs; format: functional, organism-based; conditions: NCIM 2079, 12 h
[5] = tested on: A549; assay: (§1) Cytotoxicity against human A549 cells after 48 hrs by MTT assay; format: cell-based; conditions: a549, 48 h
[6] = as §1; format: cell-based; conditions: A549 cells
[7] = tested on: Staphylococcus aureus; assay: Antibacterial activity against Staphylococcus aureus NCIM 2010 after 12 hrs; format: functional, organism-based; conditions: NCIM 2010, 12 h
[8] = tested on: Pseudomonas fluorescens; assay: Antibacterial activity against Pseudomonas fluorescens NCIM 2036 after 8 hrs; format: functional, organism-based; conditions: NCIM 2036, 8 h
[9] = (§2) Cytotoxicity against human HeLa cells after 72 hrs by MTT assay; format: cell-based; conditions: HeLa cells
[10] = tested on: HeLa; assay: as §2; format: cell-based; conditions: hela, 72 h
[11] = tested on: Mycobacterium tuberculosis; assay: Antitubercular activity against active state Mycobacterium tuberculosis H37Ra assessed as viable cells after 8 days by XTT reduction menadione assay; format: functional, organism-based; conditions: 192 h

SMILES | IC50 [1] | MIC [1] | GI50 at 48 h [2] | GI90 [2] | IC50 [3] | MIC [3] | IC50 [4] | MIC [4] | GI90 [5] | GI50 at 48 h [6] | IC50 [7] | MIC [7] | IC50 [8] | MIC [8] | GI50 at 72 h [9] | GI90 [10] | IC50 [11] | MIC [11]
O=C(/C=C\c1ccc(O)cc1)N1N=C(c2ccncc2)OC1c1c[nH]c2ccccc12 (configuration not stated) | > 30 µg/mL | > 30 µg/mL | > 30 µg/mL | > 30 µg/mL | > 256 µg/mL | > 256 µg/mL | > 256 µg/mL | > 256 µg/mL | > 30 µg/mL | > 30 µg/mL | > 256 µg/mL | > 256 µg/mL | 45 µg/mL (≈ 110 µM) | > 256 µg/mL | > 30 µg/mL | > 30 µg/mL | > 30 µg/mL | > 30 µg/mL
O=C(/C=C\c1ccc(Cl)cc1)N1N=C(c2ccncc2)OC1c1c[nH]c2ccccc12 (configuration not stated) | > 30 µg/mL | > 30 µg/mL | > 30 µg/mL | > 30 µg/mL | > 256 µg/mL | > 256 µg/mL | > 256 µg/mL | > 256 µg/mL | > 30 µg/mL | > 30 µg/mL | > 256 µg/mL | > 256 µg/mL | > 256 µg/mL | > 256 µg/mL | > 30 µg/mL | > 30 µg/mL | > 30 µg/mL | > 30 µg/mL
COc1ccc(/C=C\C(=O)N2N=C(c3ccncc3)OC2c2c[nH]c3ccccc23)cc1 (configuration not stated) | > 30 µg/mL | > 30 µg/mL | > 30 µg/mL | > 30 µg/mL | 14 µg/mL (≈ 33 µM) | 182 µg/mL (≈ 429 µM) | 15.7 µg/mL (≈ 37 µM) | 156 µg/mL (≈ 369 µM) | > 30 µg/mL | > 30 µg/mL | 7.72 µg/mL (≈ 18.2 µM) | 88.1 µg/mL (≈ 208 µM) | 15.7 µg/mL (≈ 37 µM) | 101 µg/mL (≈ 239 µM) | > 30 µg/mL | > 30 µg/mL | > 30 µg/mL | > 30 µg/mL
O=C(/C=C\c1ccccc1)N1N=C(c2ccncc2)OC1c1c[nH]c2ccccc12 (configuration not stated) | > 30 µg/mL | > 30 µg/mL | > 30 µg/mL | > 30 µg/mL | 10.3 µg/mL (≈ 26 µM) | 50.5 µg/mL (≈ 128 µM) | 12.7 µg/mL (≈ 32.1 µM) | 45.4 µg/mL (≈ 115 µM) | > 30 µg/mL | > 30 µg/mL | 11.9 µg/mL (≈ 30.1 µM) | 42.2 µg/mL (≈ 107 µM) | 11.1 µg/mL (≈ 28 µM) | 51.3 µg/mL (≈ 130 µM) | > 30 µg/mL | > 30 µg/mL | 28.7 µg/mL (≈ 72.8 µM) | > 30 µg/mL
O=C(/C=C/c1c(Cl)cccc1Cl)N1N=C(c2ccncc2)OC1c1c[nH]c2ccccc12 (configuration not stated) | 13.7 µg/mL (≈ 29.6 µM) | > 30 µg/mL | > 30 µg/mL | > 30 µg/mL | 14.8 µg/mL (≈ 31.9 µM) | > 256 µg/mL | 19.2 µg/mL (≈ 41.4 µM) | > 256 µg/mL | > 30 µg/mL | > 30 µg/mL | 86.8 µg/mL (≈ 187 µM) | 148 µg/mL (≈ 320 µM) | 15.6 µg/mL (≈ 33.6 µM) | > 256 µg/mL | > 30 µg/mL | > 30 µg/mL | 12.7 µg/mL (≈ 27.4 µM) | > 30 µg/mL
O=C(/C=C\c1ccc(Br)cc1)N1N=C(c2ccncc2)OC1c1c[nH]c2ccccc12 (configuration not stated) | > 30 µg/mL | > 30 µg/mL | > 30 µg/mL | > 30 µg/mL | 12.1 µg/mL (≈ 25.6 µM) | > 256 µg/mL | 15.2 µg/mL (≈ 32.1 µM) | > 256 µg/mL | > 30 µg/mL | > 30 µg/mL | 12.8 µg/mL (≈ 27 µM) | > 256 µg/mL | 10.4 µg/mL (≈ 22 µM) | > 256 µg/mL | > 30 µg/mL | > 30 µg/mL | > 30 µg/mL | > 30 µg/mL
O=C(/C=C\c1cccc(Cl)c1Cl)N1N=C(c2ccncc2)OC1c1c[nH]c2ccccc12 (configuration not stated) | > 30 µg/mL | > 30 µg/mL | > 30 µg/mL | > 30 µg/mL | 5.99 µg/mL (≈ 12.9 µM) | 159 µg/mL (≈ 343 µM) | 8.39 µg/mL (≈ 18.1 µM) | 168 µg/mL (≈ 362 µM) | > 30 µg/mL | > 30 µg/mL | 7.59 µg/mL (≈ 16.4 µM) | 162 µg/mL (≈ 349 µM) | 6.79 µg/mL (≈ 14.7 µM) | 198 µg/mL (≈ 427 µM) | > 30 µg/mL | > 30 µg/mL | > 30 µg/mL | > 30 µg/mL
CC(=O)O[C@H]1C(=O)[C@@]2(C)[C@H]([C@H](OC(=O)c3ccccc3)[C@]3(O)C[C@H](OC(=O)[C@H](O)[C@@H](NC(=O)c4ccccc4)c4ccccc4)C(C)=C1C3(C)C)[C@]1(OC(C)=O)CO[C@@H]1C[C@@H]2O [PACLITAXEL] | – | – | 0.0038 µg/mL (≈ 0.00445 µM) | 0.078 µg/mL (≈ 0.0913 µM) | – | – | – | – | 5.88 µg/mL (≈ 6.89 µM) | 0.12 µg/mL (≈ 0.141 µM) | – | – | – | – | 0.005 µg/mL (≈ 0.00586 µM) | 0.075 µg/mL (≈ 0.0878 µM) | – | –
O=C(/C=C\c1ccccc1F)N1N=C(c2ccncc2)OC1c1c[nH]c2ccccc12 (configuration not stated) | > 30 µg/mL | > 30 µg/mL | > 30 µg/mL | > 30 µg/mL | 25.6 µg/mL (≈ 62 µM) | > 256 µg/mL | 32 µg/mL (≈ 77.5 µM) | > 256 µg/mL | > 30 µg/mL | > 30 µg/mL | 28.8 µg/mL (≈ 69.8 µM) | 202 µg/mL (≈ 489 µM) | 26.4 µg/mL (≈ 64 µM) | > 256 µg/mL | > 30 µg/mL | > 30 µg/mL | > 30 µg/mL | > 30 µg/mL
O=C(/C=C\c1ccc(F)cc1)N1N=C(c2ccncc2)OC1c1c[nH]c2ccccc12 (configuration not stated) | > 30 µg/mL | > 30 µg/mL | > 30 µg/mL | > 30 µg/mL | 13.6 µg/mL (≈ 33 µM) | > 256 µg/mL | 15.6 µg/mL (≈ 37.8 µM) | > 256 µg/mL | > 30 µg/mL | > 30 µg/mL | 12.9 µg/mL (≈ 31.3 µM) | > 256 µg/mL | 7.33 µg/mL (≈ 17.8 µM) | > 256 µg/mL | > 30 µg/mL | > 30 µg/mL | > 30 µg/mL | > 30 µg/mL
O=C(/C=C\c1cccc(Cl)c1)N1N=C(c2ccncc2)OC1c1c[nH]c2ccccc12 (configuration not stated) | > 30 µg/mL | > 30 µg/mL | > 30 µg/mL | > 30 µg/mL | 14 µg/mL (≈ 32.6 µM) | > 256 µg/mL | 19.3 µg/mL (≈ 45 µM) | > 256 µg/mL | > 30 µg/mL | > 30 µg/mL | 14.5 µg/mL (≈ 33.9 µM) | > 256 µg/mL | 12.1 µg/mL (≈ 28.3 µM) | > 256 µg/mL | > 30 µg/mL | > 30 µg/mL | 2.54 µg/mL (≈ 5.92 µM) | > 30 µg/mL
NC[C@H]1O[C@H](O[C@H]2[C@H](O)[C@@H](O[C@H]3O[C@H](CO)[C@@H](O)[C@H](N)[C@H]3O)[C@H](N)C[C@@H]2N)[C@H](O)[C@@H](O)[C@@H]1O [KANAMYCIN] | – | – | – | – | 0.13 µg/mL (≈ 0.268 µM) | 1.62 µg/mL (≈ 3.34 µM) | 0.37 µg/mL (≈ 0.764 µM) | 1.35 µg/mL (≈ 2.79 µM) | – | – | > 30 µg/mL | > 33 µg/mL | 0.014 µg/mL (≈ 0.0289 µM) | 0.49 µg/mL (≈ 1.01 µM) | – | – | – | –
CC1(C)S[C@@H]2[C@H](NC(=O)[C@H](N)c3ccccc3)C(=O)N2[C@H]1C(=O)O [AMPICILLIN] | – | – | – | – | 0.086 µg/mL (≈ 0.246 µM) | 1.46 µg/mL (≈ 4.18 µM) | 3.15 µg/mL (≈ 9.02 µM) | 10.3 µg/mL (≈ 29.5 µM) | – | – | 0.42 µg/mL (≈ 1.2 µM) | 1 µg/mL (≈ 2.86 µM) | 1.87 µg/mL (≈ 5.35 µM) | 4.36 µg/mL (≈ 12.5 µM) | – | – | – | –
